One assay has as its target human α4β2 (Homo sapiens, UniProt P17787+P43681). Nature of the assay: Competition binding to human α4β2 receptors in membrane preparations. As for the experimental part: (§1) SH-EP1/human α4β2 (Eaton et al., 2003), SH-EP1/human α4β4 (Gentry et al., 2003), SH-EP1/α6β3β4α5 (Grinevich et al., 2005), TE671/RD and SH-SY5Y cell lines (obtained from Dr. Ron Lukas, Barrow Neurological Institute) were maintained in proliferative growth phase in Dulbecco's modified Eagle's medium (Gibco/BRL) with 10% horse serum (Gibco BRL), 5% fetal bovine serum (HyClone, Logan Utah), 1 mM sodium pyruvate, 4 mM L-glutamine. For maintenance of stable transfectants, the α4β2 and α4β4 cell media was supplemented with 0.25 mg/mL zeocin and 0.13 mg/mL hygromycin B. Selection was maintained for the α6β3β4α5 cells with 0.25 mg/mL of zeocin, 0.13 mg/mL of hygromycin B, 0.4 mg/mL of geneticin, and 0.2 mg/mL of blasticidin. HEK/human α7/RIC3 cells (obtained from J. Lindstrom, U. Pennsylvania) were maintained in proliferative growth phase in Dulbecco's modified Eagle's medium (Gibco/BRL) with 10% fetal bovine serum (HyClone, Logan Utah), 1 mM sodium pyruvate, 4 mM L-glutamine, 0.4 mg/mL geneticin; 0.2 mg/ml hygromycin B.
(§2) Preparation of membranes from rat tissues. Rat cortices were obtained from Analytical Biological Services, Incorporated (ABS, Wilmington, Del.). Tissues were dissected from female Sprague-Dawley rats, frozen and shipped on dry ice. Tissues were stored at −20° C. until needed for membrane preparation. Cortices from 10 rats were pooled and homogenized by Polytron (Kinematica GmbH, Switzerland) in 10 volumes (weight:volume) of ice-cold preparative buffer (KCl, 11 mM; KH2PO4, 6 mM; NaCl 137 mM; Na2HPO4 8 mM; HEPES (free acid), 20 mM; iodoacetamide, 5 mM; EDTA, 1.5 mM; 0.1 mM PMSF pH 7.4). The resulting homogenate was centrifuged at 40,000 g for 20 minutes at 4° C. and the resulting pellet was resuspended in 20 volumes of ice-cold water. After 60-minute incubation at 4° C., a new pellet was collected by centrifugation at 40,000 g for 20 minutes at 4° C. The final pellet was resuspended in preparative buffer and stored at −20° C. On the day of the assay, tissue was thawed, centrifuged at 40,000 g for 20 minutes and then resuspended in PBS (Dulbecco's Phosphate Buffered Saline, Life Technologies, pH 7.4) to a final concentration of 2-3 mg protein/mL. Protein concentrations were determined using the Pierce BCA Protein Assay kit (Pierce Biotechnology, Rockford, Ill.), with bovine serum albumin as the standard. Preparation of membranes from clonal cell lines. Cells were harvested in ice-cold PBS, pH 7.4, then homogenized with a polytron (Brinkmann Instruments, Westbury, N.Y.). Homogenates were centrifuged at 40,000 g for 20 minutes (4° C.). The pellet was resuspended in PBS and protein concentration determined using the Pierce BCA Protein Assay kit (Pierce Biotechnology, Rockford, Ill.).
(§3) Competition binding to receptors in membrane preparations. Binding to nicotinic receptors was assayed on membranes using standard methods adapted from published procedures (Lippiello and Fernandes, 1986; Davies et al., 1999). In brief, membranes were reconstituted from frozen stocks (approximately 0.2 mg protein) and incubated for 2 h on ice in […] assay buffer (PBS) in the presence of competitor compound (0.001 nM to […]) and radioligand. [^3H]-nicotine (L-(−)-[N-methyl-3H]-nicotine, 69.5 Ci/mmol, Perkin-Elmer Life Sciences) was used for human α4β2 binding studies. [^3H]-epibatidine (52 Ci/mmol, Perkin-Elmer Life Sciences) was used for binding studies at the other receptor subtypes. Incubation was terminated by rapid filtration on a multimanifold tissue harvester (Brandel, Gaithersburg, Md.) using GF/B filters presoaked in 0.33% polyethyleneimine (w/v) to reduce non-specific binding. Filters were washed 3 times and the radioactivity retained was determined by liquid scintillation counting.
(§4) Binding data analysis. Binding data were expressed as percent total control binding. Replicates for each point were averaged and plotted against the log of drug concentration. […]

A further assay concerns the target T1, Human α7 (Homo sapiens, UniProt P36544).
T1 construct: host or cells: HEK cells co-expressing RIC3
Kind of assay: Competition binding to human α7 receptors in membrane preparations. To be noted: membranes, [3H]-epibatidine competition; Ki by Cheng-Prusoff; read-out: Human α7 Ki. As for the experimental part: as §1, §2, §3, §4

The target of a further assay is T2, Rat α4β2 (Rattus norvegicus, UniProt P09483+P12390).
T2 construct: Preparation of membranes from rat tissues; Rat cortices were obtained from Analytical Biological Services; tissue Analytical Biological Services, Incorporated (ABS, Wilmington, Del.); host or cells: rat cortex membranes (female Sprague-Dawley)
Kind of assay: Competition binding to rat α4β2 receptors in membrane preparations. As for the experimental part:
as §2, §3
Binding data analysis. Binding data were expressed as percent total control binding. Replicates for each point were averaged and plotted against the log of drug concentration. The IC50 (concentration of the compound that produces 50% inhibition of binding) was determined by least squares non-linear regression using GraphPad Prism software (GraphPAD, San Diego, Calif.). Ki was calculated using the Cheng-Prusoff equation (Cheng and Prusoff, 1973).

The mark [1] stands for this setting: membranes, [3H]-nicotine competition, Ki by Cheng-Prusoff, read-out: human α4β2 Ki.
Setting [2] is: membranes, [3H]-epibatidine competition, Ki by Cheng-Prusoff, read-out: Rat α4β2 Ki.

Like-named read-outs stand apart in the source and are kept apart here.

For `CN1CC2CN(c3cccc(Cl)c3Cl)CC(C1)O2`, the Ki on human α4β2 (setting [1]) amounted to 5200 nM. Turning to `FC1(F)Oc2ccc(N3CC4CNCC(C3)O4)cc2O1` [3-(2,2-difluorobenzo[d][1,3]dioxol-5-yl)-9-oxa-3,7-diazabicyclo[3.3.1]nonane], the figures for the inhibitory constant (Ki) at Human α7 and at human α4β2 (setting [1]) were 90000 nM and 700 nM, respectively. In the case of `Clc1cccc(N2CC3CNCC(C2)O3)c1Cl` [3-(2,3-dichlorophenyl)-9-oxa-3,7-diazabicyclo[3.3.1]nonane], on human α4β2 (setting [1]), the inhibition constant (Ki) came out at 9600 nM. Turning to `Fc1cccc(N2CC3CNCC(C2)O3)c1F` [3-(2,3-difluorophenyl)-9-oxa-3,7-diazabicyclo[3.3.1]nonane], the Ki at human α4β2 (setting [1]) is 260 nM. With `CN1CC2CN(c3cnc(Br)nc3)CC(C1)O2` [3-(2-bromopyrimidin-5-yl)-7-methyl-9-oxa-3,7-diazabicyclo[3.3.1]nonane], on human α4β2 (setting [1]), the Ki is 2000 nM. Turning to `CN1CC2CN(c3cc(F)cc(F)c3)CC(C1)O2` [3-(3,5-difluorophenyl)-7-methyl-9-oxa-3,7-diazabicyclo[3.3.1]nonane], the Ki on human α4β2 (setting [1]) amounted to 86 nM; at Rat α4β2 (setting [2]) it was 510 nM. As for `Fc1cc(F)cc(N2CC3CNCC(C2)O3)c1` [3-(3,5-difluorophenyl)-9-oxa-3,7-diazabicyclo[3.3.1]nonane], the Ki at human α4β2 (setting [1]) turned out to be 27 nM; at Rat α4β2 it was 97 nM. Turning to `COc1cccc(N2CC3CN(C)CC(C2)O3)c1` [3-(3-methoxyphenyl)-7-methyl-9-oxa-3,7-diazabicyclo[3.3.1]nonane], at human α4β2 (setting [1]), the inhibition constant (Ki) was found to be 1600 nM.

`COc1cccc(N2CC3CNCC(C2)O3)c1` [3-(3-methoxyphenyl)-9-oxa-3,7-diazabicyclo[3.3.1]nonane]: the Ki came out at 800 nM at Human α7, 33 nM on human α4β2 (setting [1]) and 110 nM on Rat α4β2 (setting [2]). As to `CN1CC2CN(c3cnccc3Cl)CC(C1)O2` [3-(4-chloropyridin-3-yl)-7-methyl-9-oxa-3,7-diazabicyclo[3.3.1]nonane], the Ki on human α4β2 (setting [1]) was 180 nM. Take `Clc1ccncc1N1CC2CNCC(C1)O2` [3-(4-chloropyridin-3-yl)-9-oxa-3,7-diazabicydo[3.3.1]nonane]: the Ki at human α4β2 (setting [1]) worked out at 250 nM. For the compound `N#Cc1ccncc1N1CC2CNCC(C1)O2` [3-(4-cyanopyridin-3-yl)-9-oxa-3,7-diazabicyclo[3.3.1]nonane], the Ki at human α4β2 (setting [1]) came to 860 nM.

Take `COc1ccncc1N1CC2CNCC(C1)O2` [3-(4-methoxypyridin-3-yl)-9-oxa-3,7-diazabicyclo[3.3.1]nonane]: the figures for the Ki at human α4β2 (setting [1]) and at Rat α4β2 (setting [2]) were 120 nM and 580 nM, respectively. As for `CN1CC2CN(c3cncc(Oc4ccccc4Cl)c3)CC(C1)O2` [3-(5-(2-chlorophenoxy)pyridin-3-yl)-7-methyl-9-oxa-3,7-diazabicyclo[3.3.1]nonane], the inhibition constant Ki on human α4β2 (setting [1]) is 84 nM; on Rat α4β2 (setting [2]), 1200 nM. For the compound `Clc1ccccc1Oc1cncc(N2CC3CNCC(C2)O3)c1` [3-(5-(2-chlorophenoxy)pyridin-3-yl)-9-oxa-3,7-diazabicyclo[3.3.1]nonane], the Ki at Human α7 came to 430 nM; at human α4β2, 3.6 nM; on Rat α4β2 (setting [2]), 14 nM. In the case of `CN1CC2CN(c3cncc(Oc4ccc(Cl)c(Cl)c4)c3)CC(C1)O2` [3-(5-(3,4-dichlorophenoxy)pyridin-3-yl)-7-methyl-9-oxa-3,7-diazabicyclo[3.3.1]nonane], the Ki on human α4β2 (setting [1]) came out at 62 nM; on Rat α4β2 (setting [2]), 400 nM. `Brc1cncc(N2CC3CNCC(C2)O3)c1` [3-(5-bromopyridin-3-yl)-9-oxa-3,7-diazabicydo[3.3.1]nonane]: the figures for the inhibition constant (Ki) at human α4β2 (setting [1]) and at Rat α4β2 were 2.1 nM and 2.7 nM, respectively. In the case of `CN1CC2CN(c3cncc(Cl)c3)CC(C1)O2` [3-(5-chloropyridin-3-yl)-7-methyl-9-oxa-3,7-diazabicyclo[3.3.1]nonane], the results for the inhibition constant Ki on human α4β2 (setting [1]) and at Rat α4β2 (setting [2]) were 77 nM and 1600 nM, respectively. As for `CN1CC2CN(c3cncc(C#N)c3)CC(C1)O2` [3-(5-cyanopyridin-3-yl)-7-methyl-9-oxa-3,7-diazabicyclo[3.3.1]nonane], the Ki at human α4β2 (setting [1]) worked out at 260 nM.

On to `[O-][n+]1cc(F)cc(N2CC3CNCC(C2)O3)c1` [3-(5-fluoro-pyridine-1-oxide-3-yl)-9-oxa-3,7-diazabicyclo[3.3.1]nonane], for which the Ki at Human α7 came out at 54000 nM; at human α4β2 (setting [1]), 590 nM. As for `COc1cc(N2CC3CNCC(C2)O3)cnc1Cl` [3-(5-methoxy-6-chloropyridin-3-yl)-9-oxa-3,7-diazabicyclo[3.3.1]nonane], the Ki is 0.4 nM on human α4β2 (setting [1]) and 1 nM on Rat α4β2.

`CN1CC2CN(c3ccc(Cl)nn3)CC(C1)O2` [3-(6-chloropyridazin-3-yl)-7-methyl-9-oxa-3,7-diazabicyclo[3.3.1]nonane]: the Ki on human α4β2 (setting [1]) was determined as 29000 nM. With `CN1CC2CN(c3ccc(Cl)nc3)CC(C1)O2` [3-(6-chloropyridin-3-yl)-7-methyl-9-oxa-3,7-diazabicyclo[3.3.1]nonane], the Ki at human α4β2 (setting [1]) is 120 nM; at Rat α4β2 (setting [2]) it was 1800 nM. With `CN(C)c1ccc(N2CC3CNCC(C2)O3)cn1` [3-(6-dimethylaminopyridin-3-yl)-9-oxa-3,7-diazabicyclo[3.3.1]nonane], the Ki at human α4β2 (setting [1]) is 1200 nM. For `CN1CC2CN(c3ccc(F)nc3)CC(C1)O2` [3-(6-fluoropyridin-3-yl)-7-methyl-9-oxa-3,7-diazabicyclo[3.3.1]nonane], the Ki at human α4β2 (setting [1]) is 140 nM; on Rat α4β2 (setting [2]), 1100 nM. For the compound `COc1ccc(N2CC3CNCC(C2)O3)cn1` [3-(6-methoxypyridin-3-yl)-9-oxa-3,7-diazabicyclo[3.3.1]nonane], the Ki on human α4β2 (setting [1]) amounted to 200 nM. For the compound `Cc1ccc(N2CC3CN(C)CC(C2)O3)cn1` [3-(6-methylpyridin-3-yl)-7-methyl-9-oxa-3,7-diazabicyclo[3.3.1]nonane], the Ki was found to be 150 nM on human α4β2 (setting [1]) and 1700 nM at Rat α4β2 (setting [2]). In the case of `c1ccc(-c2ccc(N3CC4CNCC(C3)O4)nn2)cc1` [3-(6-phenylpyridazin-3-yl)-9-oxa-3,7-diazabicyclo[3.3.1]nonane], the inhibition constant (Ki) at human α4β2 (setting [1]) turned out to be 380 nM. Consider `CN1CC2CN(c3ccc(C(F)(F)F)nc3)CC(C1)O2` [3-(6-trifluoromethyl-pyridin-3-yl)-7-methyl-9-oxa-3,7-diazabicyclo[3.3.1]nonane], for which, at human α4β2 (setting [1]), the Ki turned out to be 1000 nM. Turning to `c1ccc(N2CC3CNCC(C2)O3)nc1` [3-(pyridin-2-yl)-9-oxa-3,7-diazabicyclo[3.3.1]nonane], the results for the Ki on human α4β2 (setting [1]) and at Rat α4β2 (setting [2]) were 100 nM and 350 nM, respectively.

Consider `CN1CC2CN(c3cncnc3)CC(C1)O2` [3-(pyrimidin-5-yl)-7-methyl-9-oxa-3,7-diazabicyclo[3.3.1]nonane], for which the Ki on human α4β2 (setting [1]) is 270 nM.

Take `CN1CC2CN(c3cnc(Cl)c(Cl)c3)CC(C1)O2` [3-methyl-7-(5,6-dichloropyridin-3-yl)-9-oxa-3,7-diazabicyclo[3.3.1]nonane]: the Ki on human α4β2 (setting [1]) came to 24 nM; at Rat α4β2 it was 33 nM.

As usually defined, the Ki is a dissociation constant, usually derived from enzyme kinetics or from competition with a known ligand.

Source of the values: patent publication US20110257168A1, “DERIVATIVES OF OXABISPIDINE AS NEURONAL NICOTINIC ACETYLCHOLINE RECEPTOR LIGANDS” (Targacept, Inc., priority 2008, published 2011).
